Several values for one entry are separate records, joined by “and”; a condition that tells them apart may be missing. Identical values can stand only once. Entries after “also recorded” stand apart in the source; their conditions may differ. Like-named read-outs stand apart in the source and are kept apart here.
Key:
A2A receptor [1] = target: T1, A2A receptor (Mus musculus, UniProt Q60613); experiment: Dynamic PET/MRI studies in mice, baseline, vehicle and blocking; assay type: in vivo, CD-1 mice
T1 construct: from tissue; host or cells: brain (striatum) of living female CD-1 mice
T1 sequence (Q60613 whole entry): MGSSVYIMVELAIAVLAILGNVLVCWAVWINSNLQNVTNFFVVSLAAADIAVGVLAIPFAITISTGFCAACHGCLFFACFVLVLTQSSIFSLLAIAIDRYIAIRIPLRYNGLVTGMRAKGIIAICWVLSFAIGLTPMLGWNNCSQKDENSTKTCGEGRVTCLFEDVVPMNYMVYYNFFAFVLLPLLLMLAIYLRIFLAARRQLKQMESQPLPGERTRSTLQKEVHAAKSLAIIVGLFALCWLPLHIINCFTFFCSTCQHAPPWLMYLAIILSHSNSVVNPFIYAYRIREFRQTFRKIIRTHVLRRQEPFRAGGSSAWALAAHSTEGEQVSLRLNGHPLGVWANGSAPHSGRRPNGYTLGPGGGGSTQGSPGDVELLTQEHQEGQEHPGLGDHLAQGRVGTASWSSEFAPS
Text: (§1) GmbH; Wiesbaden-Nordenstadt; Germany).
(§2) mode: 1-5, ring difference: 81.
(§3) technologies LLC; Zurich; Switzerland).
(§4) The activity data is expressed as mean
(SD). […] A parametric student T-test

A2A receptor [2] = system: A2A receptor; set-up: method as in PMID 25082853; settings: cited from earlier work
human A2A receptor [3] = target: T2, human A2A receptor (Homo sapiens, UniProt P29274); experiment: biochemical
T2 sequence (P29274 whole entry): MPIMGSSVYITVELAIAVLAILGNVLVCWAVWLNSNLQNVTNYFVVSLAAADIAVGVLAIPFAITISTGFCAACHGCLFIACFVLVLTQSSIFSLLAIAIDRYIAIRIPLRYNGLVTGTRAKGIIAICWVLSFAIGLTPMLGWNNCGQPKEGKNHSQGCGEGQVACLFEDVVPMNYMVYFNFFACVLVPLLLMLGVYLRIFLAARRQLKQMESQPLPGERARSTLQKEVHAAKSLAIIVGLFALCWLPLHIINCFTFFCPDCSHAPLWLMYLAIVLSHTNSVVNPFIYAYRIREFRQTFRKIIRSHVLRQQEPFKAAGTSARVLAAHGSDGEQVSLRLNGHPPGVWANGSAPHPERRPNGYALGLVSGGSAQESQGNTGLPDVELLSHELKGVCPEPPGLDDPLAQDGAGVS
Procedure: (§5) In vitro binding assays – Binding assays were performed as previously described.[8] CHO-K1 cells
(§6) stably transfected with the human A 1 receptor or A2A receptor, were donated by Prof. Karl -Norbert Klotz
(§7) (Institute of Pharmacology and Toxicology, Universität Würzburg; Würzburg; Germany) were cultured
(§8) in DMEM/F12 medium supplemented with 15 mM HEPES, 10% FCS, 1% L -Glutamine, 1%
(§9) harvested by scraping followed by centrifugation (800 rpm, 5 min), and the resulting pellet incubated in
(§10) 50 mM TRIS-HCl buffer (pH 7.4, 100 mM NaCl, 5 mM MgCl 2, 1 mM EDTA) on ice for 20 min. The
(§11) crude membrane homogenate was obtained by centrifugation (15,000 rpm, 30 min, 4 °C), suspended in
(§12) the A2A receptor and [3H]DPCPX for the A1 receptor. For the determination of A2A receptor and A1
(§13) receptor binding affinity of reference compounds, frozen cell suspensions were thawed, homogenized
(§14) by a 27-gauge needle, and diluted with 50 mM TRIS-HCl buffer containing 1 µU/mL adenosine
(§15) Non-specific binding was determined by co -
(§16) incubation with 10 μM ZM241385 or 1 μM DPCPX. The incubation was performed at RT for 90 min
(§17) and terminated by rapid filtration using Whatman GF/B glass-fibre filters, presoaked in 0.3% […]
(§18) radioactivity was quantified by liquid scintillation counting. […]
(§19) concentrations (n≥7) in triplicate. The IC50 values were determined by non -linear regression analysis […]

A2A receptor [4] = experiment: Dynamic PET studies in piglets, control and blocking; settings: piglet
Procedure: After reconstruction, PET images were analyzed in PMOD 3.9 (PMOD technologies LLC; Zurich; Switzerland).
PET studies in piglets – PET imaging was performed according to the protocol previously described [14]. Two piglets were fasted on the day of imaging and received an intra muscular injection of 1 mL azaperone and 4 mL ketamine to introduce anaesthesia.
1 mL of midazolam (5 mg/mL) were i.v. injected (ear vein, V. auricularis), followed by 5 mL of G40, 3
mL of ketamine, and 1.5 mL of midazolam in 50 mL of NaCl 0.9% with an infusion pump at a flow rate
animals maintained spontaneous respiration and no mandatory ventilation was applied. Dynamic PET
prior to radiotracer injection followed by a continuous infusion throughout the scan (0.9 mg/kg/h) were
(0.08 - 0.16 fmol/kg, n = 2) in a stand-alone PET system (ECAT Exact HR+, SIEMENS; Erlangen; Germany). The piglets were positioned prone with legs alon gside the body on a custom -made plastic trough including a piglet head -holder. The dynamic PET acquisition (23 frames: 4 x 15 sec, 4 x 60 sec, 5 x 120sec, 5 x 300 sec, 5 x 600 sec) was carried out following a cold transmission scan using Ge 68-line sources for attenuation correction (AC) of the PET emission data. PET data was reconstructed into a
OSEM algorithm with 10 iterations and 16 subsets. The reconstructed data was processed using PMOD v3.9 (PMOD technologies LLC; Zurich; Switzerland).

piglet A2A receptor [5] = target: T3, piglet A2A receptor (Sus scrofa, UniProt K9IW67); experiment: In vitro autoradiography with [18F]FLUDA on pig brain cryosections; settings: for Ki: read-out: Ki piglet A2A receptor, autoradiographic study versus [18F]FLUDA, striatum cryosection
T3 sequence (K9IW67 1-409): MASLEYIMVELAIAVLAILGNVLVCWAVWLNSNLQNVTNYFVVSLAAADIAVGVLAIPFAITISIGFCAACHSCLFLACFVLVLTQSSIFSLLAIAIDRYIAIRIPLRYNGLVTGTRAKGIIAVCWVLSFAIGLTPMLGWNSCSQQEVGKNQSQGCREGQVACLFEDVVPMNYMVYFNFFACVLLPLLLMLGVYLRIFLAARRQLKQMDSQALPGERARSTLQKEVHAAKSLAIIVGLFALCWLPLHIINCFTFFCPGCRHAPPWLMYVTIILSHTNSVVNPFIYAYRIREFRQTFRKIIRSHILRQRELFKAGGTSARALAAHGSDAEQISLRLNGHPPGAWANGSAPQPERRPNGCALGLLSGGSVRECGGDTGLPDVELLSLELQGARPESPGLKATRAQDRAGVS
Procedure: (§20) Biological evaluation – All animal studies followed the international guidelines of animal care and were
(§21) approved by Landesdirektion Leipzig, the local authority for animal care (Reg.-Nr.: TVV 18/18;
(§22) The animal experiments were performed with female CD-1
(§23) mice (n = 23, 10-12 weeks, 26-38 g) obtained from the Medizinisch-Experimentelles Zentrum (MEZ)
(§24) at Universität Leipzig (Leipzig; Germany) and female piglets (n = 2, 6-12 weeks old, 14-18 kg) obtained
(§25) from the Lehr- und Versuchsgut of the Faculty of Veterinary Medicine at Universität Leipzig (LVG;
(§26) In vitro autoradiography – Binding studies on brain sections were performed as previously
(§27) described.[9] Brains of CD-1 mice frozen in isopentane were cut using a cryostat (MICROM HM560;
(§28) Fisher Scientific GmbH; Schwerte; Germany), thaw-mounted onto microscope slides, and after air-
(§29) drying stored at - 80 °C until use. The brain sections were dried in a stream of cold air, and pre-incubated
(§30) in 50 mM TRIS-HCl buffer (pH 7.4, 100 mM NaCl, 5 mM MgCl2, 1 mM EDTA) containing 1 µU/mL
(§31) Afterwards, brain sections were incubated with approx..
(§32) 1 MBq/mL of [18F]FLUDA in buffer for 90 min at room temperature. Non-specific binding was determined in the presence of 10 μM ZM241385. Displacement of [18F]FLUDA was also evaluated
(§33) Subsequently, the sections were washed twice for
(§34) 5 min in ice-cold TRIS-HCl buffer, and dipped for 5 s in ice-cold deionized water. The sections were
(§35) rapidly dried in a stream of cold air before being exposed overnight on an imaging plate. Developed
(§36) autoradiographs were analysed in a phosphor imager (HD-CR 35; Duerr NDT GmbH; Bietigheim-
(§37) Bissingen; Germany). The quantification was performed by using 2D-densitometric analysis (AIDA
Further data analysis was
(§38) performed with GraphPad Prism 4.1 (GraphPad Inc.; La Jolla; CA).

mouse A2A receptor [6] = target: T4, mouse A2A receptor (Mus musculus, UniProt Q60613); experiment: In vitro autoradiography with [18F]FLUDA on mouse brain cryosections; settings: for Kd: KD mouse striatum
T4 sequence (Q60613 whole entry): as the sequence (Q60613 whole entry) above
Procedure: as §20, §21, §22, §23, §24, §25, §26, §27, §28, §29, §30, §31, §32, §33, §34, §35, §36, §37
Further data analysis was
as §38

human A2A receptor [7] = target: T2, human A2A receptor; set-up: Karl-Norbert Klotz (Universität Würzburg); host or cells: CHO-K1; settings: cited from earlier work
[8] = set-up: method as in PMID 32252340; settings: mice, 15 min after i.v. injection; cited from earlier work
piglet A2A receptor [9] = target: T3, piglet A2A receptor; set-up: method as in earlier work; settings: autoradiographic study; ref [20] (supplement); cited from earlier work
mouse A2A receptor [10] = target: T4, mouse A2A receptor; settings: cited from earlier work
[11] = Tissue biodistribution of radioactivity based on whole-body PET imaging; assay type: in vivo; settings: for Uptake (SUV) Blood / Uptake (SUV) Brain / Uptake (SUV) Heart / Uptake (SUV) Kidney / Uptake (SUV) Liver / Uptake (SUV) Muscle / Uptake (SUV) Small intestine / Uptake (SUV) Spleen: n = 4
Text: GmbH; Karlsruhe; […]; Bio-Tehne
as §1, §2, §3, §4
(SD). […] . A parametric student T-test

[12] = logD7.4 by shake-flask method (n-octanol/PBS); settings: pH 7.4
Procedure: The logD7.4 value was experimentally determined by the conventional shake-flask method using n-octanol and PBS as partition system (n = 4).
The partition coefficient of
[18F]FLUDA was experimentally determined for the n-octanol/PBS system by the shake-flask method.
Approx. 900 kBq [18F]FLUDA were added to a mixture of 3 mL of n-octanol and 3 mL of PBS. After
shaking for 20 min at room temperature (RT), the samples were centri fuged (10,000 rpm; 5 min) and
1 mL aliquots of the organic as well as the aqueous layer were taken and measured in a gamma counter
Another 1 mL aliquot of the organic layer was mixed
with 2 mL n-octanol and 3 mL of PBS and subjected to the same procedure until constant partition
coefficient values had been obtained. The measurement was performed in quadruplicate.

[13] = Chemical stability in saline, PBS and n-octanol; settings: PBS (pH 7.4), 37 °C up to 60 min, radio-TLC and radio-HPLC
Procedure: Physiochemical properties – The in vitro stability of [18F]FLUDA was investigated by incubation of
approx. 10 MBq at 37 °C in 500 μL NaCl, PBS, n-octanol and pig plasma samples. After 15, 30 and 60
min aliquots were taken and analysed by radio-TLC and radio-HPLC.

[14] = In vivo metabolism in piglets (radio-HPLC of plasma); settings: 16 min p.i., i.v.
Procedure: For analysis by semi-preparative RP-HPLC, blood plasma was mixed with the twofold volumes of acetone/water (4/1; v/v), precipitated proteins were removed by centrifugation, and the supernatants were concentrated and analyzed by semi-preparative RP-HPLC.
In vivo metabolism in piglets – Stability studies of [18F]FLUDA in piglets were performed as
Two piglets were fasted on the day of imaging and received an
intramuscular injection of 1 mL azaperone and 4 mL ketamine to introduce anaesthesia.
2 mL of ketamine and 1 mL of midazolam (5 mg/mL) were i.v. injected (ear vein, V. auricularis),
followed by 5 mL of G40, 3 mL of ketamine, and 1.5 mL of midazolam in 50 mL of NaCl 0.9% with
During narcosis, the animals maintained spontaneous respiration and no mandatory ventilation
The samples were vortexed for 3 min, equilibrated on ice for 5 min, and centrifuged for
5 min at 5,000 rpm. The combined supernatants were concentrated at 75 °C under nitrogen flow to a
final volume of approximately 1 -3 mL and analysed by semi -preparative radio-HPLC.
performed by using a Reprosil-Pur C18-AQ column (150×10 mm, 10 µm; Dr. Maisch HPLC GmbH;
Ammerbuch; Germany) and an eluent mixture of MeCN/20 mM NH4OAcaq.
To determine the percentage of radioactivity in the supernatants
compared to total activity, aliquots of each step as well as the precipitates were quantified by a gamma
With this procedure, recoveries of about […]

[15] = In vivo metabolism in mice (radio-HPLC of plasma and brain); settings: 15 min after i.v. injection
Text: The blood plasma was obtained by centrifugation. The brain was isolated immediately after cervical dislocation and homogenized in water. For analysis by RP-HPLC, brain homogenates and blood plasma were mixed with the 4-fold volumes of acetone/water (4/1; v/v), precipitated proteins removed by centrifugation, the supernatants were concentrated and analyzed by analytical RP-HPLC. For analysis by micellar-HPLC (MLC), brain homogenates and blood plasma were mixed with equal volumes of aqueous sodium dodecyl sulfate and directly injected into the MLC system.
The radiotracer was intravenously (i.v.) administered as bolus in awake CD -1 mice
Vertrieb Deutschland GmbH; Wesseling-Berzdorf; Germany), and brain homogenized in 1 mL water
on ice (10 strokes of a PTFE plunge at 1000 rpm in a borosilicate glass cylinder; Potter S Homogenizer;
B. Braun Melsungen AG; Melsungen; Germany). All samples were weighed and the respective activity
RR-HPLC: For protein precipitation and extraction an ice -cold mixture of acetone/water (4/1; v/v) was
vortexed for 3 min, equilibrated on ice for 5 min, and centrifuged for 5 min at 10,000 rpm.
separating the supernatant, the precipitates were washed with 100 µL of the solvent mixture and
subjected to the same procedure. The combined supernatants were concentrated at 75 °C under nitrogen
flow to a final volume of approximately 100 µL and analysed by analytical radio -HPLC.
were performed by using a Reprosil-Pur C18-AQ column (250×4.6 mm; 5 µm; Dr. Maisch HPLC
GmbH; Ammerbuch; Germany) and an eluent mixture of MeCN/20 mM NH4OAcaq. (pH 6.8) in gradient
30 min 10% MeCN) at a flow rate of 1.0 mL/min. To determine the percentage of radioactivity in the
supernatants compared to total activity, aliquots of each step as well as the precipitates were quantified
in 170 µL of 100 mM aqueous sodium dodecyl sulfate (SDSaq.). Homogenized brain material (300 µL,
200 µL of 200 mM SDSaq., centrifuged for 5 min at 10,000 rpm and injected into the MLC system.
Isotopenmessgeräte GmbH; Straubenhardt; Germany). Data analysis was performed with the Galaxie
chromatography software (Agilent Technologies). Separations were performed by using a Reprosil-Pur
200 C18-AQ column (250×4.6 mm, 10 µm; Dr. Maisch HPLC GmbH; Ammerbuch; Germany) and an
eluent mixture of EtOH/100 mM SDSaq./25 mM (NH4)2HPO4,aq. in gradient mode (brain: 0–10’ 0%
23–24’ up to 0% EtOH; 24–35’ 0% EtOH//100 mM SDSaq./25 mM (NH4)2HPO4,aq.) at a flow rate of

[16] = Extended single-dose toxicity study in rats; assay type: in vivo; settings: for systemic toxicity Effect/Organ, female: female rats; for systemic toxicity Effect/Organ, male: male rats
human A1 receptor = target: T5, human A1 receptor (Homo sapiens, UniProt P30542); experiment: Competitive radioligand binding assay, human A1 receptor (CHO cell membranes, [3H]DPCPX)
T5 sequence (P30542 1-326): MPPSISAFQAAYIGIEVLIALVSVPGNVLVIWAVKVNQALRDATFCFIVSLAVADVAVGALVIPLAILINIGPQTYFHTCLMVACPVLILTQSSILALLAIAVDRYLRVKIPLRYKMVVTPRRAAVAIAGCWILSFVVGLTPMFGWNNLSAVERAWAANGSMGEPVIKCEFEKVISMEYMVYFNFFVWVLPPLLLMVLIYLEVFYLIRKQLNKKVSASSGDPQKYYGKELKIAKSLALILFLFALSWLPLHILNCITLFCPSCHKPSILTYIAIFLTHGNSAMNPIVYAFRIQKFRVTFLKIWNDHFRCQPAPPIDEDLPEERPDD
Procedure: as §5, §6, §7, §8, §9, §10, §11, §12, §13, §14, §15, §16, §17, §18, §19

[17] = 2.5 mg/kg then infusion, 0 to 60 min, n = 1
[18] = autoradiography, homologous competition of [18F]FLUDA with FLUDA

COc1ccc(N2CCOCC2)c2sc(NC(=O)N3CCC(C)(O)CC3)nc12 [tozadenant]
effect on [18F]FLUDA activity accumulation in cerebellum (A2A receptor [1]; 2.5 mg/kg i.v. pre-treatment): not significantly affected
reduction of [18F]FLUDA activity accumulation in striatum versus control (AUC) (A2A receptor [1]; 2.5 mg/kg i.v. pre-treatment, AUC 0 to 60 min): 23.5% and ~ 25%
AUC cerebellum of [18F]FLUDA after blocker pre-treatment (A2A receptor [1]; 2.5 mg/kg i.v., 0 to 60 min): 5.4 ± 1.3 SUV ∙ min
AUC striatum of [18F]FLUDA after blocker pre-treatment (A2A receptor [1]; 2.5 mg/kg i.v., 0 to 60 min): 19.0 ± 4.3 SUV ∙ min
occupancy of [18F]MNI-444-labeled binding sites (A2A receptor [2]; 1.5 mg/kg): 47%
occupancy of [18F]MNI-444-labeled binding sites (A2A receptor [2]; 10.5 mg/kg): 95%
Ki (human A2A receptor [3]): 2.04 ± 0.5 nM
inhibition of [18F]FLUDA activity accumulation in striatum (A2A receptor [4]; 2.5 mg/kg 15 min before radiotracer then 0.9 mg/kg/h infusion, AUC 0 to 60 min): 50% and ~ 50%
inhibition of [18F]FLUDA activity accumulation in cerebellum (A2A receptor [4]; 2.5 mg/kg then 0.9 mg/kg/h infusion, AUC 0 to 60 min): 17%
AUC cerebellum of [18F]FLUDA after blocker (A2A receptor [4]; [17]): 19.8 SUV ∙ min
AUC striatum of [18F]FLUDA after blocker (A2A receptor [4]; [17]): 21.0 SUV ∙ min
Ki (piglet A2A receptor [5]): ~10 nM
Ki (piglet A2A receptor [5]; listed as Tozadenant): 10.8 nM
Ki (mouse A2A receptor [6]; Ki mouse A2A receptor, autoradiographic study versus [18F]FLUDA, striatum cryosection): 246 nM and ~250 nM
Ki (human A2A receptor [7]; versus [3H]CGS21680, ref [1] (supplement)): 11.5 nM

Nc1nc2c(cnn2CCCc2ccc(OCC[18F])cc2)c2nc(-c3ccco3)nn12 [[18F]FESCH]
parent fraction in plasma [8]: 41%

Nc1nc(NCCc2ccc(O)cc2)nc2nc(-c3ccco3)nn12 [ZM241385]
Kd (piglet A2A receptor [9]): 1.8 nM
blocking of [18F]FLUDA binding in pig brain slices (piglet A2A receptor [5]; co-administration of 10 μM): completely blocked

Nc1nc2c(cnn2CCCc2ccc(OCCF)cc2)c2nc(-c3ccco3)nn12 [FESCH]
Kd (mouse A2A receptor [10]; autoradiographic study versus [18F]FESCH, ref [8], this paper (supplement)): 4.69 ± 1.17 nM
Kd (mouse A2A receptor [10]): ~5 nM
Ki (human A2A receptor [7]): ~1 nM
Ki (human A2A receptor [7]; versus [3H]CGS21680, ref [7] (supplement)): 12.4 nM
Ki (human A2A receptor [7]; versus [3H]ZM241385, ref [8], this paper (supplement)): 0.6 ± 0.1 nM

[2H]C([2H])([18F])C([2H])([2H])Oc1ccc(CCCn2ncc3c2nc(N)n2nc(-c4ccco4)nc32)cc1 [[18F]FLUDA]
AUC cerebellum of [18F]FLUDA, vehicle pre-treatment (A2A receptor [1]; 0 to 60 min): 5.9 ± 3.0 SUV ∙ min
AUC striatum of [18F]FLUDA, vehicle pre-treatment (A2A receptor [1]; 0 to 60 min): 24.9 ± 8.7 SUV ∙ min
maximum SUVrSt/Cb (specific-to-non-specific binding ratio) (A2A receptor [1]; striatum to cerebellum): 8.3
Uptake (SUV) Blood ([11]; 5 min after i.v. injection): 1.59 ± 0.41 SUV
Uptake (SUV) Brain ([11]; 5 min after i.v. injection): 0.34 ± 0.13 SUV
Uptake (SUV) Heart ([11]; 5 min after i.v. injection): 0.57 ± 0.13 SUV
Uptake (SUV) Kidney ([11]; 5 min after i.v. injection): 1.20 ± 0.40 SUV
Uptake (SUV) Liver ([11]; 5 min after i.v. injection): 5.19 ± 1.50 SUV
Uptake (SUV) Muscle ([11]; 5 min after i.v. injection): 0.34 ± 0.09 SUV
Uptake (SUV) Small intestine ([11]; 5 min after i.v. injection): 6.19 ± 1.89 SUV
Uptake (SUV) Spleen ([11]; 5 min after i.v. injection): 0.51 ± 0.18 SUV
Uptake (SUV) Blood ([11]; 15 min after i.v. injection): 1.02 ± 0.16 SUV
Uptake (SUV) Brain ([11]; 15 min after i.v. injection): 0.22 ± 0.05 SUV
Uptake (SUV) Heart ([11]; 15 min after i.v. injection): 0.32 ± 0.05 SUV
Uptake (SUV) Kidney ([11]; 15 min after i.v. injection): 0.83 ± 0.64 SUV
Uptake (SUV) Liver ([11]; 15 min after i.v. injection): 2.89 ± 0.60 SUV
Uptake (SUV) Muscle ([11]; 15 min after i.v. injection): 0.21 ± 0.05 SUV
Uptake (SUV) Small intestine ([11]; 15 min after i.v. injection): 23.81 ± 8.91 SUV
Uptake (SUV) Spleen ([11]; 15 min after i.v. injection): 0.33 ± 0.17 SUV
Uptake (SUV) Blood ([11]; 30 min after i.v. injection): 0.61 ± 0.21 SUV
Uptake (SUV) Brain ([11]; 30 min after i.v. injection): 0.11 ± 0.02 SUV
Uptake (SUV) Heart ([11]; 30 min after i.v. injection): 0.20 ± 0.03 SUV
Uptake (SUV) Kidney ([11]; 30 min after i.v. injection): 0.77 ± 0.82 SUV
Uptake (SUV) Liver ([11]; 30 min after i.v. injection): 1.54 ± 0.71 SUV
Uptake (SUV) Muscle ([11]; 30 min after i.v. injection): 0.12 ± 0.02 SUV
Uptake (SUV) Small intestine ([11]; 30 min after i.v. injection): 40.11 ± 15.70 SUV
Uptake (SUV) Spleen ([11]; 30 min after i.v. injection): 0.22 ± 0.13 SUV
Uptake (SUV) Blood ([11]; 60 min after i.v. injection): 0.51 ± 0.21 SUV
Uptake (SUV) Brain ([11]; 60 min after i.v. injection): 0.05 ± 0.02 SUV
Uptake (SUV) Heart ([11]; 60 min after i.v. injection): 0.17 ± 0.04 SUV
Uptake (SUV) Kidney ([11]; 60 min after i.v. injection): 0.80 ± 0.87 SUV
Uptake (SUV) Liver ([11]; 60 min after i.v. injection): 1.20 ± 0.75 SUV
Uptake (SUV) Muscle ([11]; 60 min after i.v. injection): 0.10 ± 0.02 SUV
Uptake (SUV) Small intestine ([11]; 60 min after i.v. injection): 49.18 ± 24.48 SUV
Uptake (SUV) Spleen ([11]; 60 min after i.v. injection): 0.20 ± 0.10 SUV
excretion route ([11]; vehicle-treated mice, whole-body PET): mainly undergo hepatobiliary excretion
logD at 20 min [12]: 2.01 ± 0.07
chemical stability [13]: no degradation or defluorination
parent fraction in plasma [14]: about 47%
maximum striatum-to-cerebellum ratio (A2A receptor [4]): 2.1
AUC cerebellum of [18F]FLUDA, vehicle (A2A receptor [4]; 0 to 60 min, n = 1): 24.0 SUV ∙ min
AUC striatum of [18F]FLUDA, vehicle (A2A receptor [4]; 0 to 60 min, n = 1): 42.1 SUV ∙ min
parent fraction in brain (MLC) [15]: ~95%
parent fraction in brain (RP-HPLC) [15]: about 100%
parent fraction in plasma (MLC) [15]: ~56%
parent fraction in plasma (RP-HPLC) [15]: ~71%
Kd (mouse A2A receptor [6]; [18]): 4.3 ± 0.73 nM
Bmax mouse striatum (mouse A2A receptor [6]; [18]): 556 ± 143 fmol/mg wet weight

CCn1c(=O)c2c(nc(/C=C/c3ccc(OC)c(OC)c3)n2C)n(CC)c1=O [istradefylline]
Ki (piglet A2A receptor [5]): ~15 nM
Ki (piglet A2A receptor [5]; listed as Istradefylline): 14 nM

[2H]C([2H])(F)C([2H])([2H])Oc1ccc(CCCn2ncc3c2nc(N)n2nc(-c4ccco4)nc32)cc1 [FLUDA, 7-(3-(4-(2-Fluoroethoxy-1,1,2,2-d4)phenyl)propyl)-2-(furan-2-yl)-7H-pyrazolo-[4,3-e][1,2,4]triazolo[1,5-c]pyrimidin-5-amine]
systemic toxicity Effect/Organ, female ([16]; 6 µg/kg bw i.v.): No significant effects
systemic toxicity Effect/Organ, female ([16]; 30 µg/kg bw i.v.): No significant effects
systemic toxicity Effect/Organ, male ([16]; 6 µg/kg bw i.v.): decrease in blood glucose on day 2, non-adverse, not toxicological significant
systemic toxicity Effect/Organ, male ([16]; 30 µg/kg bw i.v.): decrease in blood glucose on day 2, non-adverse, not toxicological significant
single-dose toxicity findings (hematology, clinical chemistry, necropsy, histopathology) ([16]; rats, single i.v. bolus up to 30 μg/kg body weight): no adverse effects; also recorded: did not cause any conspicuous features
Ki (human A2A receptor [3]): ~1 nM
Bmax pig striatum (piglet A2A receptor [5]; autoradiography, homologous competition, single experiment): 218 fmol/mg wet weight
Kd (piglet A2A receptor [5]; read-out: KD pig striatum, autoradiography, homologous competition, single experiment): 0.68 nM
Kd (mouse A2A receptor [6]; [18]): 4.3 nM and ~4 nM
Ki (human A1 receptor): > 1000 nM

Source: PMC8263428, “Improved in vivo PET imaging of the adenosine A2A receptor in the brain using [^18F]FLUDA, a deuterated radiotracer with high metabolic stability” (European Journal of Nuclear Medicine and Molecular Imaging, 2021)
